Results taken from PubChem BioAssay (NCI).
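How tested: cells in 96-well plates exposed to compound for 48 hours at five concentrations. TGI: concentration producing complete growth inhibition.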

Assays:
Assay in all cases: growth of human tumour cells (NCI), 48 h
786-0 renal = test system: 786-0 renal
A498 renal = test system: A498 renal
A549 NSCLC = test system: A549 NSCLC
ACHN renal = test system: ACHN renal
BT-549 breast = test system: BT-549 breast
CAKI-1 renal = test system: CAKI-1 renal
CCRF-CEM leukemia = test system: CCRF-CEM leukemia
COLO 205 colon = test system: COLO 205 colon
DU-145 prostate = test system: DU-145 prostate
EKVX NSCLC = test system: EKVX NSCLC
HCC-2998 colon = test system: HCC-2998 colon
HCT-116 colon = test system: HCT-116 colon
HCT-15 colon = test system: HCT-15 colon
HL-60(TB) leukemia = test system: HL-60(TB) leukemia
HOP-62 NSCLC = test system: HOP-62 NSCLC
HS 578T breast = test system: HS 578T breast
HT29 colon = test system: HT29 colon
IGROV1 ovarian = test system: IGROV1 ovarian
K-562 leukemia = test system: K-562 leukemia
KM12 colon = test system: KM12 colon
LOX IMVI melanoma = test system: LOX IMVI melanoma
M14 melanoma = test system: M14 melanoma
MCF7 breast = test system: MCF7 breast
MDA-MB-231 breast = test system: MDA-MB-231 breast
MDA-MB-435 = test system: MDA-MB-435
MDA-N = test system: MDA-N
MOLT-4 leukemia = test system: MOLT-4 leukemia
NCI-H226 lung = test system: NCI-H226 lung
NCI-H23 lung = test system: NCI-H23 lung
NCI-H460 lung = test system: NCI-H460 lung
NCI/ADR-RES ovarian = test system: NCI/ADR-RES ovarian
OVCAR-3 ovarian = test system: OVCAR-3 ovarian
OVCAR-4 ovarian = test system: OVCAR-4 ovarian
OVCAR-5 ovarian = test system: OVCAR-5 ovarian
OVCAR-8 ovarian = test system: OVCAR-8 ovarian
PC-3 prostate = test system: PC-3 prostate
RPMI-8226 leukemia = test system: RPMI-8226 leukemia
RXF 393 renal = test system: RXF 393 renal
SF-268 CNS = test system: SF-268 CNS
SF-295 CNS = test system: SF-295 CNS
SF-539 CNS = test system: SF-539 CNS
SK-MEL-2 melanoma = test system: SK-MEL-2 melanoma
SK-MEL-28 melanoma = test system: SK-MEL-28 melanoma
SK-MEL-5 melanoma = test system: SK-MEL-5 melanoma
SK-OV-3 ovarian = test system: SK-OV-3 ovarian
SN12C renal = test system: SN12C renal
SNB-19 CNS = test system: SNB-19 CNS
SNB-75 CNS = test system: SNB-75 CNS
SR leukemia = test system: SR leukemia
SW-620 colon = test system: SW-620 colon
T-47D breast = test system: T-47D breast
TK-10 renal = test system: TK-10 renal
U251 CNS = test system: U251 CNS
UACC-257 melanoma = test system: UACC-257 melanoma
UACC-62 melanoma = test system: UACC-62 melanoma
UO-31 renal = test system: UO-31 renal
MALME-3M melanoma = test system: MALME-3M melanoma
NCI-H522 lung = test system: NCI-H522 lung

For `CC(C)(C)[Si](C)(C)OC1(CCc2ccccc2OS(=O)(=O)C(F)(F)F)CCCC=C1COCc1ccccc1` (stereo unspecified), the TGI (786-0 renal) was > 100 µM, the TGI (A498 renal) was > 100 µM and the TGI (A549 NSCLC) was > 100 µM. The TGI (ACHN renal) was > 50.9 µM, the TGI (BT-549 breast) was > 100 µM and the TGI (CAKI-1 renal) was > 100 µM. For the same compound, the TGI (CCRF-CEM leukemia) was > 76.4 µM, the TGI (COLO 205 colon) was > 100 µM and the TGI (DU-145 prostate) was > 100 µM. For the same compound, the TGI (EKVX NSCLC) was > 100 µM, the TGI (HCC-2998 colon) was > 100 µM and the TGI (HCT-116 colon) was > 100 µM. The TGI (HCT-15 colon) was > 100 µM, the TGI (HL-60(TB) leukemia) was > 55.3 µM and the TGI (HOP-62 NSCLC) was > 100 µM. For the same compound, the TGI (HS 578T breast) was > 100 µM, the TGI (HT29 colon) was > 100 µM and the TGI (IGROV1 ovarian) was > 100 µM. The TGI (K-562 leukemia) was > 100 µM, the TGI (KM12 colon) was > 100 µM and the TGI (LOX IMVI melanoma) was > 100 µM. For the same compound, the TGI (M14 melanoma) was > 100 µM, the TGI (MCF7 breast) was > 54.8 µM and the TGI (MDA-MB-231 breast) was > 100 µM. For the same compound, the TGI (MDA-MB-435) was > 100 µM, the TGI (MDA-N) was > 100 µM and the TGI (MOLT-4 leukemia) was > 62.3 µM. The TGI (NCI-H226 lung) was > 100 µM, the TGI (NCI-H23 lung) was > 100 µM and the TGI (NCI-H460 lung) was > 100 µM. For the same compound, the TGI (NCI/ADR-RES ovarian) was > 100 µM, the TGI (OVCAR-3 ovarian) was > 100 µM and the TGI (OVCAR-4 ovarian) was > 100 µM. For the same compound, the TGI (OVCAR-5 ovarian) was > 100 µM, the TGI (OVCAR-8 ovarian) was > 100 µM and the TGI (PC-3 prostate) was > 100 µM. The TGI (RPMI-8226 leukemia) was > 52.7 µM, the TGI (RXF 393 renal) was 90.8 µM and the TGI (SF-268 CNS) was > 100 µM. The TGI (SF-295 CNS) was > 100 µM, the TGI (SF-539 CNS) was > 100 µM and the TGI (SK-MEL-2 melanoma) was > 100 µM. The TGI (SK-MEL-28 melanoma) was > 100 µM, the TGI (SK-MEL-5 melanoma) was > 100 µM and the TGI (SK-OV-3 ovarian) was > 100 µM. The TGI (SN12C renal) was > 100 µM, the TGI (SNB-19 CNS) was > 100 µM and the TGI (SNB-75 CNS) was > 100 µM. For the same compound, the TGI (SR leukemia) was > 100 µM, the TGI (SW-620 colon) was > 100 µM and the TGI (T-47D breast) was > 100 µM. For the same compound, the TGI (TK-10 renal) was > 100 µM, the TGI (U251 CNS) was > 100 µM and the TGI (UACC-257 melanoma) was > 100 µM. The TGI (UACC-62 melanoma) was > 53 µM and the TGI (UO-31 renal) was > 100 µM.

In the case of `O=C(Nc1ccn(C2CCC(CO)O2)c(=O)n1)c1ccccc1` (stereo unspecified), the TGI (786-0 renal) was > 100 µM, the TGI (A498 renal) was > 100 µM and the TGI (A549 NSCLC) was > 100 µM. The TGI (ACHN renal) was > 100 µM, the TGI (BT-549 breast) was > 100 µM and the TGI (CAKI-1 renal) was > 100 µM. For the same compound, the TGI (CCRF-CEM leukemia) was > 100 µM, the TGI (COLO 205 colon) was > 100 µM and the TGI (DU-145 prostate) was > 100 µM. The TGI (EKVX NSCLC) was > 100 µM, the TGI (HCC-2998 colon) was > 100 µM and the TGI (HCT-116 colon) was > 100 µM. The TGI (HCT-15 colon) was > 100 µM, the TGI (HL-60(TB) leukemia) was > 100 µM and the TGI (HOP-62 NSCLC) was > 100 µM. For the same compound, the TGI (HS 578T breast) was > 100 µM, the TGI (HT29 colon) was > 100 µM and the TGI (IGROV1 ovarian) was > 100 µM. For the same compound, the TGI (K-562 leukemia) was > 100 µM, the TGI (KM12 colon) was > 100 µM and the TGI (LOX IMVI melanoma) was > 100 µM. For the same compound, the TGI (M14 melanoma) was > 100 µM, the TGI (MALME-3M melanoma) was > 100 µM and the TGI (MCF7 breast) was > 100 µM. For the same compound, the TGI (MDA-MB-231 breast) was > 100 µM, the TGI (MDA-MB-435) was > 100 µM and the TGI (MDA-N) was > 100 µM. The TGI (MOLT-4 leukemia) was > 100 µM, the TGI (NCI-H226 lung) was > 100 µM and the TGI (NCI-H23 lung) was > 100 µM. The TGI (NCI-H522 lung) was > 100 µM, the TGI (NCI/ADR-RES ovarian) was > 100 µM and the TGI (OVCAR-5 ovarian) was > 100 µM. The TGI (OVCAR-8 ovarian) was > 100 µM, the TGI (PC-3 prostate) was > 100 µM and the TGI (RPMI-8226 leukemia) was > 100 µM. The TGI (RXF 393 renal) was > 100 µM, the TGI (SF-268 CNS) was > 100 µM and the TGI (SF-295 CNS) was > 100 µM. The TGI (SF-539 CNS) was > 100 µM, the TGI (SK-MEL-2 melanoma) was > 100 µM and the TGI (SK-MEL-28 melanoma) was > 100 µM. The TGI (SK-MEL-5 melanoma) was > 100 µM, the TGI (SK-OV-3 ovarian) was > 100 µM and the TGI (SN12C renal) was > 100 µM. For the same compound, the TGI (SNB-19 CNS) was > 100 µM, the TGI (SNB-75 CNS) was > 100 µM and the TGI (SR leukemia) was > 100 µM. For the same compound, the TGI (SW-620 colon) was > 100 µM, the TGI (T-47D breast) was > 100 µM and the TGI (TK-10 renal) was > 100 µM. For the same compound, the TGI (U251 CNS) was > 100 µM, the TGI (UACC-257 melanoma) was > 100 µM and the TGI (UACC-62 melanoma) was > 100 µM. For the same compound, the TGI (UO-31 renal) was > 100 µM.
